Assay results from US12539287B2, “L-DOPA microbiome therapy” (Iowa State University Research Foundation, Inc., priority 2018, dated 2026).

What was measured:
[1] = Bz 50 mg/kg 3 times/day
Procedure: Mice were orally administered a single daily dose of 10^9 CFU EcN^2L-DOPA or PBS and also Bz (50 mg/kg) 3 times/day for 1 and 2 days. Plasma samples collected through submandibular sampling prior to EcN^2L-DOPA treatment (serving as baseline), and at 4, 8, 16, 24 and 48 h post-EcN^2L-DOPA and Bz (50 mg/kg) treatment, were assayed for L-DOPA production by HPLC. […] We increased the dose and frequency of Bz because of its short half-life.

[2] = humans; cited from earlier work
[3] = cited from earlier work

NC(CO)C(=O)NNCc1ccc(O)c(O)c1O (stereo not drawn) [Bz, benserazide]
duration of Bz plasma levels [1]: up to 30 h

N[C@@H](Cc1ccc(O)c(O)c1)C(=O)O [L-DOPA, (−)-L-a-amino-b-(3,4-dihydroxybenzene)propanoic acid]
optimal therapeutic plasma levels [2]: 300 to 1600 ng/mL | solubility in water [3]: slightly soluble in water
